Measurements: US11965204B2, “Detection of analytes by enzyme-mediated strand displacement reactions” (priority 2020, dated 2024)

What was measured:
MphR = test: MphR-based biosensor, derepression by ligand; format: biochemical, E. coli; conditions: fixed concentration of MphR; erythromycin 0 nM-2.5 uM; FIG. 10
Text: (§1) Here we present two biosensors built with the described mechanism above. As shown in FIGS. 7A-7B, the aTF TetR (SEQ ID NO: 21) can be used to build a tetracycline biosensor using its corresponding operator sequence in the DNA template and partially in the IP (SEQ ID NO: 19). Increasing concentrations of TetR decrease the rate of the reaction as there is less DNA template accessible to HgaI. When the system is repressed by a given concentration of TetR, it can be derepressed by the ligand tetracycline. The rate of the reaction is proportional to the concentration of tetracycline within a certain concentration range (FIG. 8). Similarly, a circuit using the aTF MphR (SEQ ID NO: 22) with its corresponding operator sequence (SEQ ID NOs: 17 and 18) in the DNA template and partially in the IP (SEQ ID NO: 20) can be used to sense macrolides.
(§2) HgaI/Toehold-Mediated Strand Displacement Reactions.

[1] = test system: DNA template (S) with MphR operator sequence; test: Titration of MphR in the HgaI/toehold-mediated strand displacement reaction; format: biochemical; conditions: absence of erythromycin; MphR 0 nM-3 uM; FIG. 9B
Text: FIG. 9A illustrates the components of the biosensor, indicating the DNA template (S) and Invading Probe (IP) sequences and modifications.
as §1, §2

Molecule: CC[C@H]1OC(=O)[C@H](C)[C@@H](O[C@H]2C[C@@](C)(OC)[C@@H](O)[C@H](C)O2)[C@H](C)[C@@H](O[C@@H]2O[C@H](C)C[C@H](N(C)C)[C@H]2O)[C@](C)(O)C[C@@H](C)C(=O)[C@H](C)[C@@H](O)[C@]1(C)O [erythromycin]
- response of the MphR-repressed reaction to the ligand (MphR): proportionally higher reaction rates

B1: MphR: aTF used to sense macrolides; SEQ ID NO: 22 (protein, listed as Escherichia coli)
chain: MPRPKLKSDDEVLEAATVVLKRCGPIEFTLSGVAKEVGLSRAALIQRFTNRDTLLVRMMERGVEQVRHYLNAIPIGAGPQGLWEFLQVLVRSMNTRNDFSVNYLISWYELQVPELRTLAIQRNRAVVEGIRKRLPPGAPAAAELLLHSVIAGATMQWAVDPDGELADHVLAQIAAILCLMFPEHDDFQLLQAHA
- effect of increasing aTF concentration on reaction rate [1]: decrease of the reaction rate
